Results from patent US20240109881A1, “Heteroaryl Compounds as Ligand Directed Degraders of IRAK4” (Bristol-Myers Squibb Company, priority 2022, published 2024).

Molecular target: T1, IRAK4 (Homo sapiens, UniProt Q9NWZ3)
T1 construct: endogenous in cells; host or cells: THP-1 cells
T1 sequence (Q9NWZ3 1-460): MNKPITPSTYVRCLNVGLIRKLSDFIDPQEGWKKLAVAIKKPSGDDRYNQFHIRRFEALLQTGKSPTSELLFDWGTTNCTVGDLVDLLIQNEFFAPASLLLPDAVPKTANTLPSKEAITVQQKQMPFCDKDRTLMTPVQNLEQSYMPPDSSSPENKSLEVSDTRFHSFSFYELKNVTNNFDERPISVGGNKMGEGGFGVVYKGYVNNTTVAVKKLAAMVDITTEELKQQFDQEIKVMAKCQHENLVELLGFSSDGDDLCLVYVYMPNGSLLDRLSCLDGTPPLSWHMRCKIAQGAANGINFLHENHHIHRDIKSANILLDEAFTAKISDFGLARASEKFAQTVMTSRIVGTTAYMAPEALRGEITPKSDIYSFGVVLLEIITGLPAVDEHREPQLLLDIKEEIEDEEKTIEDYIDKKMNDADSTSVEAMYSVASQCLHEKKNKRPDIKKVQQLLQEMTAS
Assay: LVL THP1 HTRF (THP1 Homogeneous Time Resolved Fluorescence)
Format: cell-based
Details: THP1 cells, 18 h incubation with compound; for DC50: read-out: LVL THP1 HTRF EC50
Summary of the method: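 THP-1 cells in phenol red-free RPMI with 10% FBS were dosed with compound (20 nL in DMSO) for 18 h at 37° C. After 2 h lysis, IRAK4 was detected with anti-IRAK4-d2/anti-IRAK4-K HTRF antibodies for 18 h at room temperature and read at 665/615 nm; a parallel CTG plate was run.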

Row | LVL THP1 HTRF YMIN | DC50 | SMILES
1 | 1.7% | 26.2 nM | C[C@H](C#N)Nc1cc(-n2ncc3cc(C#N)cnc32)ncc1-n1cc([C@H]2CC[C@H](CCN3CCC(c4ccc(N5CCC(=O)NC5=O)cc4)C(F)(F)C3)CC2)nn1 (single isomer, unassigned) [P-420]
2 | 5.3% | 1.9 nM | C[C@H](C#N)Nc1cc(-n2ncc3cc(C#N)cnc32)ncc1-n1cc([C@H]2CC[C@H](CCN3CCC(F)(c4ccc([C@@]5(C)CCC(=O)NC5=O)cc4)CC3)CC2)nn1 (single isomer, unassigned) [P-424]
3 | 41.0% | 1000 nM | C[C@H](C#N)Nc1cc(-n2ncc3cc(C#N)cnc32)ncc1-n1cc([C@H]2CC[C@](O)(CCN3CCN(c4ccc([C@@]5(C)CCC(=O)NC5=O)cn4)CC3)CC2)nn1 (single isomer, unassigned) [P-426]
4 | 1.8% | 40.4 nM | C[C@H](C#N)Nc1cc(-n2ncc3cc(C#N)cnc32)ncc1C(=O)N[C@H]1CC[C@H](CCN2CC[C@H]3[C@@H]2CCN3c2ccc([C@@]3(C)CCC(=O)NC3=O)cc2)CC1 (single isomer, unassigned) [P-427]
5 | 5.4% | 59.4 nM | C[C@H](C#N)Nc1cc(-n2ncc3cc(C#N)cnc32)ncc1-n1cc([C@H]2CC[C@](O)(CCN3CCN(c4ccc(N5CCC(=O)NC5=O)cc4)CC3)CC2)nn1 (single isomer, unassigned) [P-429]
6 | −0.4% | 5.5 nM | C[C@H](C#N)Nc1cc(-n2ncc3cc(C#N)cnc32)ncc1C(=O)N[C@H]1CC[C@H](CCN2CCC(c3ccc([C@@]4(F)CCC(=O)NC4=O)cc3)CC2)CC1 (single isomer, unassigned) [P-430]
7 | 52.3% | 123 nM | C[C@H](C#N)Nc1cc(-n2ncc3cc(C#N)cnc32)ncc1-n1cc([C@H]2CC[C@H](CCN3CC[C@H]4[C@@H]3CCN4c3ccc([C@@]4(C)CCC(=O)NC4=O)cn3)CC2)nn1 (single isomer, unassigned) [P-435]
8 | 0.6% | 4.6 nM | C[C@H](C#N)Nc1cc(-n2ncc3cc(C#N)c(N)nc32)ncc1-n1cc([C@H]2CC[C@H](CCN3CC[C@H]4[C@@H]3CCN4c3ccc([C@@]4(C)CCC(=O)NC4=O)cc3)CC2)nn1 (single isomer, unassigned) [P-453]
9 | 1.1% | 13.6 nM | C[C@H](C#N)Nc1cc(-n2ncc3cc(C#N)cnc32)ncc1-n1cc([C@H]2CC[C@H](CCN3CC[C@H]4[C@@H]3CCN4c3ccc([C@@]4(C)CCC(=O)NC4=O)cc3)CC2)nn1 (single isomer, unassigned) [P-454]
10 | 5.4% | 3.7 nM | C[C@H](C#N)Nc1cc(-n2ncc3cc(C#N)cnc32)ncc1-n1cc([C@H]2CC[C@H](CCN3CC[C@H]4[C@@H]3CCN4c3ccc(N4CCC(=O)NC4=O)c(F)c3)CC2)nn1 (single isomer, unassigned) [P-461]
11 | 3.3% | 6.1 nM | C[C@H](C#N)Nc1cc(-n2ncc3cc(C#N)cnc32)ncc1-n1cc([C@H]2CC[C@H](CCN3CC[C@H]4[C@@H]3CCN4c3ccc([C@@]4(C)CCC(=O)NC4=O)cc3)CC2)nn1 (single isomer, unassigned) [P-462]
12 | −7.1% | 0.7 nM | C[C@H](C#N)Nc1cc(-n2ncc3cc(C#N)cnc32)ncc1-n1cc([C@H]2CC[C@H](CCN3CC[C@H]4[C@@H]3CCN4c3ccc(N4CCC(=O)NC4=O)c(Cl)c3)CC2)nn1 (single isomer, unassigned) [P-464]
13 | 10.6% | 29.7 nM | Cc1cc(N2CC[C@H]3[C@@H]2CCN3CC[C@H]2CC[C@H](c3cn(-c4cnc(-n5ncc6cc(C#N)cnc65)cc4N[C@H](C)C#N)nn3)CC2)ccc1N1CCC(=O)NC1=O (single isomer, unassigned) [P-470]
14 | 5.0% | 70 nM | Cc1cc(N2CC[C@H]3[C@@H]2CCN3CC[C@H]2CC[C@H](c3cn(-c4cnc(-n5ncc6cc(C#N)cnc65)cc4N[C@H](C)C#N)nn3)CC2)ccc1N1CCC(=O)NC1=O (single isomer, unassigned) [P-474]
15 | 17.1% | 161 nM | C[C@H](C#N)Nc1cc(-n2ncc3cc(C#N)cnc32)ncc1-n1cc([C@H]2CC[C@H](CCN3CC[C@H]4[C@@H]3CCN4c3ccc(N4CCC(=O)NC4=O)c(Cl)c3)CC2)nn1 (single isomer, unassigned) [P-478]
16 | 0.8% | 26 nM | C[C@H](C#N)Nc1cc(-n2ncc3cc(C#N)cnc32)ncc1-n1cc([C@H]2CC[C@H](CCN3CC[C@H]4[C@@H]3CCN4c3ccc(N4CCC(=O)NC4=O)c(F)c3)CC2)nn1 (single isomer, unassigned) [P-480]

Row | LVL THP1 HTRF YMIN | DC50 | SMILES
17 | 2.7% | 8 nM | C[C@H](C#N)Nc1cc(-n2ncc3cc(C#N)c(N)nc32)ncc1-n1cc([C@H]2CC[C@H](CCN3CC[C@H]4[C@@H]3CCN4c3ccc([C@@]4(C)CCC(=O)NC4=O)cc3)CC2)nn1 (single isomer, unassigned) [P-487]
18 | 41.7% | 4440 nM | C[C@H](C#N)Nc1cc(-n2ncc3cc(C#N)cnc32)ncc1C(=O)N[C@H]1CC[C@@H](CCN2CC[C@H]3[C@@H]2CCN3c2ccc(N3CCC(=O)NC3=O)c(Cl)c2)CC1 (single isomer, unassigned) [P-488]
19 | 14.9% | 156 nM | C[C@H](C#N)Nc1cc(-n2ncc3cc(C#N)cnc32)ncc1-n1cc([C@H]2CC[C@H](CCN3CCC(c4ccc(N5CCC(=O)NC5=O)cc4)C3)CC2)nn1 (single isomer, unassigned) [P-491]
20 | −0.2% | 35 nM | C[C@H](C#N)Nc1cc(-n2ncc3cc(C#N)cnc32)ncc1C(=O)N[C@H]1CC[C@H](CCN2CC[C@H]3[C@@H]2CCN3c2ccc([C@@]3(C)CCC(=O)NC3=O)cc2)CC1 (single isomer, unassigned) [P-492]
21 | 21.2% | 110 nM | C[C@H](C#N)Nc1cc(-n2ncc3cc(C#N)cnc32)ncc1-n1cc([C@H]2CC[C@H](CCN3CC[C@H]4[C@@H]3CN4c3ccc(N4CCC(=O)NC4=O)cc3)CC2)nn1 (single isomer, unassigned) [P-494]
22 | 2.7% | 110 nM | C[C@H](C#N)Nc1cc(-n2ncc3cc(C#N)cnc32)ncc1-n1cc([C@H]2CC[C@H](CCN3CC[C@@H]4[C@H]3CN4c3ccc(N4CCC(=O)NC4=O)cc3)CC2)nn1 (single isomer, unassigned) [P-495]
23 | 13.6% | 239 nM | C[C@H](C#N)Nc1cc(-n2ncc3cc(C#N)cnc32)ncc1-n1cc([C@H]2CC[C@H](CCN3CCC(c4ccc(N5CCC(=O)NC5=O)cc4)C3)CC2)nn1 (single isomer, unassigned) [P-497]
24 | −0.52% | 43.4 nM | C[C@H](C#N)Nc1cc(Nc2ncc(C#N)cc2Cl)ncc1-n1cc([C@H]2CC[C@H](CCN3CC[C@H]4[C@@H]3CCN4c3ccc(N4CCC(=O)NC4=O)cc3)CC2)nn1 (single isomer, unassigned) [P-500]
25 | 82.16% | 1000 nM | C[C@H](C#N)Nc1cc(Nc2ncc(C#N)cc2Cl)ncc1-n1cc([C@H]2CC[C@H](CCN3CCN(c4ccc(N5CCC(=O)NC5=O)cc4)[C@@H]4COC[C@@H]43)CC2)nn1 (single isomer, unassigned) [P-503]
26 | 9.83% | 197 nM | C[C@H](C#N)Nc1cc(-n2ncc3cc(C#N)cnc32)ncc1-n1cc(C2CCC(CCN3CCN(c4ccc(N5CCC(=O)NC5=O)cc4)[C@@H]4CCC[C@@H]43)CC2)nn1 (single isomer, unassigned) [P-505]
27 | 65.39% | 1000 nM | C[C@H](C#N)Nc1cc(Nc2ncc(C#N)cc2Cl)ncc1-n1cc([C@H]2CC[C@H](CCN3CCN(c4ccc(N5CCC(=O)NC5=O)cc4)[C@@H]4CCC[C@@H]43)CC2)nn1 (single isomer, unassigned) [P-506]
28 | −1.72% | 62.8 nM | C[C@H](C#N)Nc1cc(Nc2ncc(C#N)cc2F)ncc1-n1cc([C@H]2CC[C@H](CCN3CC[C@H]4[C@@H]3CCN4c3ccc(N4CCC(=O)NC4=O)cc3)CC2)nn1 (single isomer, unassigned) [P-507]
29 | 5.2% | 8 nM | C[C@H](C#N)Nc1cc(-n2ncc3ccc(N4C[C@H]5C[C@@H]4CO5)nc32)ncc1-n1cc([C@H]2CC[C@H](CCN3CCC(c4ccc([C@@]5(F)CCC(=O)NC5=O)cc4)CC3)CC2)nn1 (single isomer, unassigned) [P-513]
30 | 7.6% | 17 nM | C[C@H](C#N)Nc1cc(-n2ncc3cc(C#N)c(N)nc32)ncc1-n1cc([C@H]2CC[C@H](CCN3CCN(c4ccc([C@@]5(C)CCC(=O)NC5=O)cc4)[C@H](C)C3)CC2)nn1 (stereo in doubt) [P-260]
31 | 1.3% | 3.6 nM | C[C@H](C#N)Nc1cc(-n2ncc3cc(C#N)cnc32)ncc1-n1cc([C@H]2CC[C@H](CCN3CCC(c4ccc([C@@]5(C)CCC(=O)NC5=O)cc4)C(F)C3)CC2)nn1 (stereo in doubt) [P-310]
